Data on three compounds can be found in US8753680B2, “Capsule for the prevention of cardiovascular diseases” (Ferrer Internacional S.A., priority 2008, dated 2014).

Each structure is given as a SMILES string.

The nature of data set [1]: Degradation of acetylsalicylic acid by moisture. The conditions noted are these: found in the course of the investigation. The data set is classed as physicochemical. An excerpt: Subsequent acetylsalicylic acid sublimation occurs on the surface of ACE inhibitor tablets thus inducing its chemical degradation. A partially hydrolysed polyvinyl alcohol coating film (Opadry AMB™, Colorcon) has been found useful for protecting both acetylsalicylic acid and the ACE inhibitor tablets because of its moisture barrier properties. HMG-CoA reductase inhibitor tablets in the present invention may be coated with a coloured film, such as a hydroxypropylmethyl cellulose comprising film (Opadry Orange™, Colorcon) to hide darkened appearance. Opadry AMB coatings also may comprise one or more than one pigment.

For data set [2] the following is noted: general statement, no test described; cited from earlier work.

Regarding `CC(=O)Oc1ccccc1C(=O)O` [acetylsalicylic acid], the “Degradation due to moisture” value in data set [1] is “degrades to salicylic acid due to moisture”.

For `NCCCC[C@H](N[C@@H](CCc1ccccc1)C(=O)O)C(=O)N1CCC[C@H]1C(=O)O` [lisinopril, 1-[N^2-[(S)-1-carboxy-3-phenylpropyl]-L-lysyl]-L-proline], in data set [2], the Solubility in water result is “one of the most soluble in water”.

With `CCC[C@H](N[C@@H](C)C(=O)N1[C@H](C(=O)O)C[C@@H]2CCCC[C@@H]21)C(=O)OCC` [perindopril, 1-ethylic ester of (2S,3aS,7aS)-1-[(S)-N-[(S)-1-carboxybutyl]alanyl]hexahydro-2-indolinecarboxylic acid], the Solubility in water result in data set [2] is “freely soluble in water”.
